Values joined by “and” are separate entries in the source; they are usually repeats but may differ in a detail not shown here. Equal values may be shown once.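 48-hour exposure; five concentrations; linearly interpolated endpoints. GI50 marks 50% less growth. Definition used: TGI = concentration required for complete inhibition of growth.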
Tests used:
Test in all cases: NCI tumour cell line growth inhibition, 48 h
CCRF-CEM leukemia = system: CCRF-CEM leukemia
HL-60(TB) leukemia = system: HL-60(TB) leukemia
K-562 leukemia = system: K-562 leukemia
OVCAR-5 ovarian = system: OVCAR-5 ovarian
PC-3 prostate = system: PC-3 prostate
T-47D breast = system: T-47D breast
UACC-257 melanoma = system: UACC-257 melanoma
CAKI-1 renal = system: CAKI-1 renal
LOX IMVI melanoma = system: LOX IMVI melanoma
MALME-3M melanoma = system: MALME-3M melanoma

SMILES	GI50 (CCRF-CEM leukemia)	TGI (CCRF-CEM leukemia)	GI50 (HL-60(TB) leukemia)	TGI (HL-60(TB) leukemia)	GI50 (K-562 leukemia)	TGI (K-562 leukemia)	GI50 (OVCAR-5 ovarian)	TGI (OVCAR-5 ovarian)	GI50 (PC-3 prostate)	TGI (PC-3 prostate)	GI50 (T-47D breast)	TGI (T-47D breast)	GI50 (UACC-257 melanoma)	TGI (UACC-257 melanoma)	TGI (CAKI-1 renal)	TGI (LOX IMVI melanoma)	TGI (MALME-3M melanoma)	GI50 (CAKI-1 renal)	GI50 (LOX IMVI melanoma)	GI50 (MALME-3M melanoma)
N#C/C(=N\Nc1ccc(Cl)cc1)C(=O)Nc1cc(-c2ccccc2)nn1-c1ccccc1	2.27 µM	> 100 µM	3.05 µM	9.38 µM	1.72 µM	> 100 µM	3 µM	> 100 µM	2.4 µM	> 100 µM	2.01 µM	7.12 µM	2.35 µM	8.62 µM						
CCN(CC)CCCn1cnc2ncccc2c1=O		> 100 µM				> 100 µM		> 100 µM							> 100 µM	> 100 µM	> 100 µM			
c1ccc2c(c1)sc1c3cnccc3ccc21				> 100 µM		> 100 µM		> 100 µM				> 100 µM		> 100 µM	> 100 µM	> 100 µM	> 100 µM			
C#CCN(Cc1nc2cc(C(F)(F)F)ccc2nc1-c1ccccc1)c1ccc(OC(F)(F)F)cc1					33.9 µM	> 100 µM	> 100 µM	> 100 µM	44.4 µM	> 100 µM	39.1 µM	> 100 µM	> 100 µM	> 100 µM	> 100 µM	96.1 µM	> 100 µM	62 µM	37 µM	> 100 µM
Cc1oc2c(C)c3oc(=O)cc(C)c3cc2c1CNC(=O)[C@@H]1OCCOCCOCCOCCOCCOC1C(=O)O (stereo partly specified)		> 100 µM		> 100 µM		> 100 µM		> 100 µM						> 100 µM	> 100 µM	> 100 µM	> 100 µM			
CC1=C(/C=C/C(=O)O)C(C)(C)CCC1				> 100 µM		> 100 µM		> 100 µM		> 100 µM				> 100 µM	> 100 µM	> 100 µM	> 100 µM			
CC1(Cl)CC2OC3(Br)C=CC(C)(O)C2(CC1Br)C3(C)C (stereo unspecified)		> 100 µM		> 100 µM		> 100 µM		> 100 µM						> 100 µM	> 100 µM	> 100 µM	> 100 µM			
C/C(=N\NC(N)=S)c1cc(C)c(C)cc1C		> 100 µM		65.5 µM		> 100 µM		46.5 µM						> 100 µM	> 100 µM	> 100 µM	92 µM			
O=C(C=Nc1ccccc1C(=O)[O-])c1cccs1.O=C(C=Nc1ccccc1C(=O)[O-])c1cccs1.[Co+2]		> 100 µM		> 100 µM		> 100 µM		> 100 µM						> 100 µM	> 100 µM	> 100 µM	> 100 µM			
COc1ccc2c(c1O)C13CCN(C)C(C2)C1CCC1(C3)OCCO1 (stereo unspecified)								> 100 µM		> 100 µM		> 100 µM		> 100 µM	> 100 µM	> 100 µM	> 100 µM			
CC(=O)O[C@@]12CO[C@@H]1C[C@H](O)[C@@]1(C)C(=O)[C@H](O)C3=C(C)[C@@H](OC(=O)[C@H](O)[C@@H](NC(=O)OC(C)(C)C)c4ccccc4)C[C@@](O)([C@@H](OC(=O)c4ccccc4)[C@H]21)C3(C)C	0.0286 µM and 0.0159 µM	> 73.6 µM	0.00316 µM and 0.00342 µM		0.0147 µM and 0.0122 µM	71.9 µM				> 100 µM			0.31 µM	57.9 µM	81.8 µM	42.1 µM		0.146 µM	0.00308 µM and 0.00368 µM	
C/C=C/C1=C(Cl)C(=O)[C@@H](Cl)[C@@]1(O)C(=O)OC		> 24 µM		4.28 µM		14.4 µM		24.5 µM						3.5 µM	8.4 µM	6.37 µM	6.21 µM			

Reference: PubChem BioAssay (NCI)
